Assay [1] relates to HT29 cells. Description: Antiproliferative activity against HT29 cells (Cell Titer-Lumi, ATP content). Type of assay: cell-based. The following applies: Homo sapiens, HT-29, 72 after compound addition, read-out: HT-29 cells Anti-proliferative activity (IC50 for the inhibition against HT-29 cell growth). The method in brief: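 Growth inhibition IC50 derived from luminescent ATP content after 72 (units as printed) of compound exposure over a dilution gradient. Seeding density 3000 cells per well; compound added once cells had adhered overnight.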

Assay [2] deals with T1, Wee-1 kinase (Homo sapiens, UniProt P30291).
T1 construct: purchased Invitrogen
Description: Inhibitory activity against Wee-1 kinase (Lanthra Screen Wee-1 kinase kit, Tracer 178). Conditions: Wee-1 kinase 5 nM, Tracer 178 50 nM, 1 h room temperature. Type of assay: binding. Put shortly:
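Compound gradient in DMSO mixed with 5 nM Wee-1, 2 nM Eu-anti-GST antibody and 50 nM Tracer 178 (all final). Read after one hour at room temperature; IC50 calculated against the DMSO solvent control.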

T1 sequence (P30291 whole entry): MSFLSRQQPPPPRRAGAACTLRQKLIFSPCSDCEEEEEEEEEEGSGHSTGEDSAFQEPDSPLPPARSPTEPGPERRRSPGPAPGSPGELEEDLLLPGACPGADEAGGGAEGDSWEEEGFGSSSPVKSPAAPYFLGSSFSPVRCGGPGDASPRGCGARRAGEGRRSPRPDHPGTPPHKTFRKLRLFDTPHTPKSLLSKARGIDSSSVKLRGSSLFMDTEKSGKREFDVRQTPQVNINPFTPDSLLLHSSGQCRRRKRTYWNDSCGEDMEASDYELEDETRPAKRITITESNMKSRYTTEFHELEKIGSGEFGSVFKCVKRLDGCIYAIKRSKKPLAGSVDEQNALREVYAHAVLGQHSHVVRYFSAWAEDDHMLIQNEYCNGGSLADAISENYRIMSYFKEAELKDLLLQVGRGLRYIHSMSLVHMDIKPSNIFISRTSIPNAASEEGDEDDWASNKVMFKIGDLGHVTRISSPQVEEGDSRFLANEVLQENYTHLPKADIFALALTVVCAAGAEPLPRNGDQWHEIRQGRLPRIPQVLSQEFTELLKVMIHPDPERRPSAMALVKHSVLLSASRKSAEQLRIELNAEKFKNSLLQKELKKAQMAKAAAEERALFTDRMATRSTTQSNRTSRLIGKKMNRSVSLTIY

The IC50 is the concentration needed to halve the response being measured. With `C=CCn1c(=O)c2cnc(Nc3cccc(C4CCN(C)CC4)c3)nc2n1-c1ccc(=O)n(C(C)C)n1` [Compound 205], the IC50 in assay [1] was not above 1000 nM; in assay [2] it was not above 30 nM.
On to `C=CCn1c(=O)c2cnc(Nc3cc(C)cc(C4CCNCC4)c3)nc2n1-c1ccc(=O)n(C(C)C)n1` [Compound 206], for which the IC50 in assay [1] was not above 1000 nM; in assay [2], not above 30 nM.
In the same order, the values of `C=CCn1c(=O)c2cnc(Nc3cc(C)cc(C4CCN(C)CC4)c3)nc2n1-c1ccc(=O)n(C(C)C)n1` [Compound 207] are not above 1000 nM and not above 30 nM.
For `C=CCn1c(=O)c2cnc(Nc3cc(F)cc(C4CCNCC4)c3)nc2n1-c1ccc(=O)n(C(C)C)n1` [Compound 208] the same measures were not above 1000 nM and not above 30 nM.
In the same order, the values of `C=CCn1c(=O)c2cnc(Nc3cc(F)cc(C4CCN(C)CC4)c3)nc2n1-c1ccc(=O)n(C(C)C)n1` [Compound 209] are not above 1000 nM and not above 30 nM.
In the case of `C=CCn1c(=O)c2cnc(Nc3cc(Cl)cc(C4CCNCC4)c3)nc2n1-c1ccc(=O)n(C(C)C)n1` [Compound 210], the IC50 is not above 1000 nM in assay [1] and not above 30 nM in assay [2].
Turning to `C=CCn1c(=O)c2cnc(Nc3cc(Cl)cc(C4CCN(C)CC4)c3)nc2n1-c1ccc(=O)n(C(C)C)n1` [Compound 211], the figures for the IC50 in assay [1] and in assay [2] were not above 1000 nM and not above 30 nM, respectively.
In the same order, the values of `C=CCn1c(=O)c2cnc(Nc3cc(OC)cc(C4CCNCC4)c3)nc2n1-c1ccc(=O)n(C(C)C)n1` [Compound 212] are not above 1000 nM and not above 30 nM.
In the same order, the values of `C=CCn1c(=O)c2cnc(Nc3cc(OC)cc(C4CCN(C)CC4)c3)nc2n1-c1ccc(=O)n(C(C)C)n1` [Compound 213] are not above 1000 nM and not above 30 nM.
In the same order, the values of `C=CCn1c(=O)c2cnc(Nc3ccc(CCN(C)C)cc3)nc2n1-c1ccc(=O)n(C(C)C)n1` [Compound 214] are not above 1000 nM and not above 30 nM.
With `C=CCn1c(=O)c2cnc(Nc3ccc(CCN(C)C)c(C)c3)nc2n1-c1ccc(=O)n(C(C)C)n1` [Compound 215], the IC50 is not above 1000 nM in assay [1] and not above 30 nM in assay [2].
For `C=CCn1c(=O)c2cnc(Nc3ccc(OCCN(C)C)cc3)nc2n1-c1ccc(=O)n(C(C)C)n1` [Compound 216] the same measures were not above 1000 nM and not above 30 nM.
In the same order, the values of `C=CCn1c(=O)c2cnc(Nc3ccc(OCCN(C)C)c(C)c3)nc2n1-c1ccc(=O)n(C(C)C)n1` [Compound 217] are not above 1000 nM and not above 30 nM.
In the same order, the values of `C=CCn1c(=O)c2cnc(Nc3ccc4cc(N5CCN(C)CC5)ccc4c3)nc2n1-c1ccc(=O)n(C(C)C)n1` [Compound 218] are not above 1000 nM and not above 30 nM.
In the case of `C=CCn1c(=O)c2cnc(Nc3ccc4cc(N5CCN(C)CC5)cnc4c3)nc2n1-c1ccc(=O)n(C(C)C)n1` [Compound 219], the IC50 in assay [1] is not above 1000 nM; in assay [2], not above 30 nM.
In the same order, the values of `C=CCn1c(=O)c2cnc(Nc3ccc4c(c3)CC(N(C)C)C4)nc2n1-c1ccc(=O)n(C(C)C)n1` (centres unmarked) [Compound 220] are not above 1000 nM and not above 30 nM.
As for `C=CCn1c(=O)c2cnc(Nc3ccc4c(c3)CNC4)nc2n1-c1ccc(=O)n(C(C)C)n1` [Compound 221], the IC50 in assay [1] was 1000 to 3000 nM; in assay [2], not above 30 nM.
For the compound `C=CCn1c(=O)c2cnc(Nc3ccc4c(c3)CN(C)C4)nc2n1-c1ccc(=O)n(C(C)C)n1` [Compound 222], the results for the IC50 in assay [1] and in assay [2] were not above 1000 nM and not above 30 nM, respectively.
In the same order, the values of `C=CCn1c(=O)c2cnc(Nc3ccc4c(c3)CNC4(C)C)nc2n1-c1ccc(=O)n(C(C)C)n1` [Compound 223] are not above 1000 nM and not above 30 nM.
For the compound `C=CCn1c(=O)c2cnc(Nc3ccc4c(c3)CN(C)C4(C)C)nc2n1-c1ccc(=O)n(C(C)C)n1` [Compound 224], the concentration for half-maximal inhibition (IC50) in assay [1] was not above 1000 nM; in assay [2], not above 30 nM.
In the same order, the values of `C=CCn1c(=O)c2cnc(Nc3ccc4c(c3)CNCC4)nc2n1-c1ccc(=O)n(C(C)C)n1` [Compound 225] are not above 1000 nM and not above 30 nM.
For `C=CCn1c(=O)c2cnc(Nc3ccc4c(c3)CN(C)CC4)nc2n1-c1ccc(=O)n(C(C)C)n1` [Compound 226] the same measures were not above 1000 nM and not above 30 nM.
In the same order, the values of `C=CCn1c(=O)c2cnc(Nc3ccc4c(c3)CN(C(C)C)CC4)nc2n1-c1ccc(=O)n(C(C)C)n1` [Compound 227] are not above 1000 nM and not above 30 nM.
Regarding `C=CCn1c(=O)c2cnc(Nc3ccc4c(c3)CCNC4)nc2n1-c1ccc(=O)n(C(C)C)n1` [Compound 228], the results for the IC50 in assay [1] and in assay [2] were not above 1000 nM and not above 30 nM, respectively.
On to `C=CCn1c(=O)c2cnc(Nc3ccc4c(c3)CCN(C)C4)nc2n1-c1ccc(=O)n(C(C)C)n1` [Compound 229], for which the IC50 in assay [1] is not above 1000 nM; in assay [2] it was not above 30 nM.
In the case of `C=CCn1c(=O)c2cnc(Nc3ccc4c(c3)CCN(C(C)C)C4)nc2n1-c1ccc(=O)n(C(C)C)n1` [Compound 230], the values for the IC50 in assay [1] and in assay [2] were not above 1000 nM and not above 30 nM, respectively.
Turning to `C=CCn1c(=O)c2cnc(Nc3ccc4c(c3)CNCC43CC3)nc2n1-c1ccc(=O)n(C(C)C)n1` [Compound 231], the values for the concentration for half-maximal inhibition (IC50) in assay [1] and in assay [2] were not above 1000 nM and not above 30 nM, respectively.
In the same order, the values of `C=CCn1c(=O)c2cnc(Nc3ccc4c(c3)CN(C)CC43CC3)nc2n1-c1ccc(=O)n(C(C)C)n1` [Compound 232] are not above 1000 nM and not above 30 nM.
For `C=CCn1c(=O)c2cnc(Nc3ccc4c(c3)CN(C(C)C)CC43CC3)nc2n1-c1ccc(=O)n(C(C)C)n1` [Compound 233] the same measures were not above 1000 nM and not above 30 nM.
As to `C=CCn1c(=O)c2cnc(Nc3ccc4c(c3)C3(CC3)CNC4)nc2n1-c1ccc(=O)n(C(C)C)n1` [Compound 234], the IC50 was not above 1000 nM in assay [1] and not above 30 nM in assay [2].
Turning to `C=CCn1c(=O)c2cnc(Nc3ccc4c(c3)C3(CC3)CN(C)C4)nc2n1-c1ccc(=O)n(C(C)C)n1` [Compound 235], the results for the IC50 in assay [1] and in assay [2] were not above 1000 nM and not above 30 nM, respectively.
In the same order, the values of `C=CCn1c(=O)c2cnc(Nc3ccc4c(c3)C3(CC3)CN(C(C)C)C4)nc2n1-c1ccc(=O)n(C(C)C)n1` [Compound 236] are not above 1000 nM and not above 30 nM.
For `C=CCn1c(=O)c2cnc(Nc3ccc4c(c3)CNCC4(C)C)nc2n1-c1ccc(=O)n(C(C)C)n1` [Compound 237] the same measures were not above 1000 nM and not above 30 nM.
As for `C=CCn1c(=O)c2cnc(Nc3ccc4c(c3)CN(C)CC4(C)C)nc2n1-c1ccc(=O)n(C(C)C)n1` [Compound 238], the results for the IC50 in assay [1] and in assay [2] were not above 1000 nM and not above 30 nM, respectively.
For `C=CCn1c(=O)c2cnc(Nc3ccc4c(c3)CN(C(C)C)CC4(C)C)nc2n1-c1ccc(=O)n(C(C)C)n1` [Compound 239] the same measures were not above 1000 nM and not above 30 nM.
In the same order, the values of `C=CCn1c(=O)c2cnc(Nc3ccc4c(c3)CNCC4(F)F)nc2n1-c1ccc(=O)n(C(C)C)n1` [Compound 240] are not above 1000 nM and not above 30 nM.
As for `C=CCn1c(=O)c2cnc(Nc3ccc4c(c3)CN(C)CC4(F)F)nc2n1-c1ccc(=O)n(C(C)C)n1` [Compound 241], the 50% inhibitory concentration (IC50) in assay [1] is not above 1000 nM; in assay [2], not above 30 nM.
For the compound `C=CCn1c(=O)c2cnc(Nc3ccc4c(c3)CN(C(C)C)CC4(F)F)nc2n1-c1ccc(=O)n(C(C)C)n1` [Compound 242], the IC50 in assay [1] was not above 1000 nM; in assay [2], not above 30 nM.
For `C=CCn1c(=O)c2cnc(Nc3ccc4c(c3)C(C)(C)CNC4)nc2n1-c1ccc(=O)n(C(C)C)n1` [Compound 243] the same measures were not above 1000 nM and not above 30 nM.
In the same order, the values of `C=CCn1c(=O)c2cnc(Nc3ccc4c(c3)C(C)(C)CN(C)C4)nc2n1-c1ccc(=O)n(C(C)C)n1` [Compound 244] are not above 1000 nM and not above 30 nM.
In the same order, the values of `C=CCn1c(=O)c2cnc(Nc3ccc4c(c3)C(C)(C)CN(C(C)C)C4)nc2n1-c1ccc(=O)n(C(C)C)n1` [Compound 245] are not above 1000 nM and not above 30 nM.
`C=CCn1c(=O)c2cnc(Nc3ccc(N(C)CCN(C)C)nc3)nc2n1-c1ccc(=O)n(C(C)C)n1` [Compound 246]: the IC50 in assay [1] was not above 1000 nM; in assay [2], not above 30 nM.
For `C=CCn1c(=O)c2cnc(Nc3ccc(N4CCN(C)CC4)nc3)nc2n1-c1ccc(=O)n(C(C)C)n1` [Compound 247] the same measures were not above 1000 nM and not above 30 nM.
For `C=CCn1c(=O)c2cnc(Nc3ccc(N4CCN(C)CC4)cn3)nc2n1-c1ccc(=O)n(C(C)C)n1` [Compound 248] the same measures were not above 1000 nM and not above 30 nM.
For the compound `C=CCn1c(=O)c2cnc(Nc3cc(OC)c(N4CCN(C)CC4)cn3)nc2n1-c1ccc(=O)n(C(C)C)n1` [Compound 249], the figures for the half-maximal inhibitory concentration (IC50) in assay [1] and in assay [2] were not above 1000 nM and not above 30 nM, respectively.
In the same order, the values of `C=CCn1c(=O)c2cnc(Nc3cnn(C4CCN(C)CC4)c3)nc2n1-c1ccc(=O)n(C(C)C)n1` [Compound 250] are 1000 to 3000 nM and 30 to 100 nM.
Consider `C=CCn1c(=O)c2cnc(Nc3cnn(C4CCN(C(C)C)CC4)c3)nc2n1-c1ccc(=O)n(C(C)C)n1` [Compound 251], for which the IC50 in assay [1] was 1000 to 3000 nM; in assay [2], 30 to 100 nM.
In the same order, the values of `C=CCn1c(=O)c2cnc(Nc3cc(N4CCN(C)CC4)c4cc[nH]c4c3)nc2n1-c1ccc(=O)n(C(C)C)n1` [Compound 252] are not above 1000 nM and not above 30 nM.
For `C=CCn1c(=O)c2cnc(Nc3cc(N4CCN(C(C)C)CC4)c4cc[nH]c4c3)nc2n1-c1ccc(=O)n(C(C)C)n1` [Compound 253] the same measures were not above 1000 nM and not above 30 nM.
